Here are results for one compound from patent US8993282B2, “Carotenoid fermentation method” (JX Nippon Oil & Energy Corporation, priority 2008, dated 2015).

In experiment [1] the test system is Paracoccus sp. strain Y-1071. In words: Glutamate supplementation, test tube culture (Pharmamedia medium), carotenoid by HPLC. It is filed as cell-based. Here is the method:
(§1) In the examples, carotenoids were quantified by high performance liquid chromatography (HPLC) as follows.
(§2) Two columns of Wakosil-II 5 SIL-100 (φ4.6×250 mm) (Wako Pure Chemical Industries, Ltd., Japan) were connected to each other for use as a column. Elution was performed by flowing an n-hexane-tetrahydrofuran-methanol mixed solution (40:20:1), which was a mobile phase, at a flow rate of 1.0 mL/minute at a constant temperature around room temperature. The measurement was performed as follows. Samples were each dissolved in tetrahydrofuran and then diluted 100-fold with the mobile phase. Each dilution was injected in a volume of 20 μL. The column eluate was detected at a wavelength of 470 nm. As a reference for quantification, astaxanthin (SIGMA, Cat. No. A9335) was used. The astaxanthin concentration of the reference solution was determined using the following equation after measuring the absorbance (A) of the reference solution at 477 nm and the area percentage % (B) of the astaxanthin peak at the time of HPLC analysis under the above conditions.
Next, a medium of the following composition (sucrose 30 g/L, Pharmamedia 20 g/L, ammonium sulfate 1.5 g/L, potassium dihydrogenphosphate 1.5 g/L, disodium hydrogenphosphate 12-hydrate 3.8 g/L, calcium chloride dihydrate 0.1 g/L, magnesium sulfate 7-hydrate 4.5 g/L, iron sulfate 7-hydrate 5 g/L, biotin 1 mg/L, silicon-based defoaming agent 1 g/L) was dispensed in 8 ml volumes into cotton-plugged test tubes having an inner diameter of 18 mm (2 tubes in total). One of the tubes was supplemented with monosodium L-glutamate monohydrate to 30 mmol/L, while the other was supplemented with nothing as a control.
The resulting culture solution was then inoculated in 0.1 ml volumes into the two test tube media and cultured with shaking at 28° C. for 4 days at 300 spm.
Each culture solution was measured for its carotenoid concentration by HPLC.

Experiment [2] concerns Paracoccus sp. strain A-581-1 (FERM BP-4671). In words: Glutamate supplementation, 5 L fermentation tank culture, carotenoid by HPLC. The format is cell-based. As to the method: as §1
as §2, with “conditions. Astaxanthin concentration (mg/L)=A/2150×B×100” for “conditions.”
A medium of the following composition (sucrose 20 g/L, filtered corn steep liquor 5 g/L, potassium dihydrogenphosphate 0.54 g/L, dipotassium hydrogenphosphate 12-hydrate 2.78 g/L, calcium chloride dihydrate 5.0 g/L, magnesium sulfate 7-hydrate 0.7 g/L, iron sulfate 7-hydrate 3.0 g/L, alcohol-based […] agent 0.2 g/L, pH 7.5) was dispensed in 100 ml volumes into 500 mL cotton-plugged Erlenmeyer flasks and sterilized in an autoclave at 121° C., for 15 minutes to prepare a flask medium for seed culture in 2 flasks.
Next, a medium of the following composition (glucose 40 g/L, corn steep liquor 30 g/L, ammonium sulfate 0.5 g/L, potassium dihydrogenphosphate 2.25 g/L, disodium hydrogenphosphate 12-hydrate 5.7 g/L, calcium chloride dihydrate […], magnesium sulfate 7-hydrate 0.5 g/L, iron sulfate 7-hydrate 5 g/L, alcohol-based defoaming agent 0.5 g/L) was dispensed in 2.0 L volumes into 5 L fermentation tanks (2 tanks in total). One of the fermentation tanks was supplemented with monosodium L-glutamate monohydrate to 15 mmol/L, while the other was supplemented with nothing as a control. These fermentation tanks were sterilized in an autoclave at 121° C. for 30 minutes.
A loopful of Paracoccus sp. strain A-581-1 (FERM BP-4671) was inoculated into the flask medium for seed culture and then cultured with rotary shaking at 27° C. for 2 days at 150 rpm. The resulting culture solution was then inoculated in 90 mL volumes into the individual fermentation tanks, followed by aerobic culture at 27° C. at an aeration volume of 1 vvm for 100 hours. To maintain a pH of 7.1 during culture, the pH was continuously controlled with 20% aqueous sodium hydroxide. Glucose was added in an amount of 30 g on […] day 2 of culture to prevent glucose depletion. At 22 and 29 hours of culture, monosodium L-glutamate monohydrate and ammonium sulfate were added in amounts of 5 g and 3 g, respectively, per liter of the initial medium. The minimum number of agitation rotations was set to 100 rpm, and the number of agitation rotations was varied such that the dissolved oxygen concentration in the culture solution was maintained at 2 to 4 ppm. An alcohol-based defoaming agent was added in an amount of 0.1 g per hour to prevent bubble formation,
At the completion of culture, each culture solution was measured for its carotenoid concentration by HPLC.

The mark [3] stands for this setting: Glutamic acid concentration 30 mmol/L, 28° C. for 4 days.
Where [4] appears, read: Glutamic acid concentration 15 mmol/L, 100 hours.

Regarding `N[C@@H](CCC(=O)O)C(=O)O` [Glutamic acid, glutamic acid], the “produced carotenoid concentration compared to the sample without glutamic acid” value in experiment [1] (30 mmol/L) is listed as “higher produced carotenoid concentration”. In experiment [1] (setting [3]), this compound had a 3-Hydroxyechinenone of 0.7 mg/L, an Adonixanthin of 18.4 mg/L, an Astaxanthin of 94.8 mg/L and an Asteroidenone of 1.5 mg/L. Also, in experiment [1] (setting [3]), the Canthaxanthin is listed as 10.0 mg/L, the Echinenone is given as 6.5 mg/L, the Phoenicoxanthin was 24.8 mg/L and the “Total carotenoid” value is 170.2 mg/L. Besides, in experiment [1] (setting [3]), the Zeaxanthin is reported as 0.28 mg/L, the β-Carotene is on record as 13.1 mg/L and the β-Cryptoxanthin is given as 0.10 mg/L. The “produced carotenoid concentration compared to the sample without glutamic acid” value in experiment [2] (15 mmol/L) is “higher produced carotenoid concentration”. In experiment [2] (setting [4]), the 3-Hydroxyechinenone amounted to 0.05 mg/L, the Adonixanthin was 2.10 mg/L, the Astaxanthin came out at 5.97 mg/L and the Asteroidenone is on record as 0.02 mg/L. In experiment [2] (setting [4]), the Canthaxanthin amounted to 1.22 mg/L, the Echinenone is recorded as 0.51 mg/L, the Phoenicoxanthin is on record as 2.01 mg/L and the “Total carotenoid” value is on record as 13.68 mg/L. Besides, in experiment [2] (setting [4]), the Zeaxanthin worked out at 0.03 mg/L, the β-Carotene worked out at 1.76 mg/L and the β-Cryptoxanthin came to 0.01 mg/L.
